# Results: ChEMBL document CHEMBL4052645, “Discovery of potent and efficacious pyrrolopyridazines as dual JAK1/3 inhibitors” (Bioorg Med Chem Lett, 2017)
# Tests used:
# [1] = target: MAP kinase-interacting serine/threonine-protein kinase 1 (Homo sapiens) (UniProt Q9BUB5); assay: Inhibition of wild-type human full length MNK1 (M1 to L424 residues) expressed in mammalian expression system assessed as residual activity at 50 nM by Kinomescan method relative to control
# [2] = target: Serine/threonine-protein kinase TAO1 (Homo sapiens) (UniProt Q7L7X3); assay: Inhibition of wild-type human partial length TAO1 (M1 to A320 residues) expressed in mammalian expression system assessed as residual activity at 50 nM by Kinomescan method relative to control
# [3] = target: Aurora kinase B (Homo sapiens) (UniProt Q96GD4); assay: Inhibition of wild-type human partial length AURB (D25 to A303 residues) expressed in mammalian expression system assessed as residual activity at 50 nM by Kinomescan method relative to control
# [4] = target: Platelet-derived growth factor receptor alpha (Homo sapiens) (UniProt P16234); assay: Inhibition of wild-type human partial length PDGFRA (V575 to D1002 residues) expressed in mammalian expression system assessed as residual activity at 50 nM by Kinomescan method relative to control
# Sequence of Platelet-derived growth factor receptor alpha (Homo sapiens) (P16234 whole entry, the tested form may be a part): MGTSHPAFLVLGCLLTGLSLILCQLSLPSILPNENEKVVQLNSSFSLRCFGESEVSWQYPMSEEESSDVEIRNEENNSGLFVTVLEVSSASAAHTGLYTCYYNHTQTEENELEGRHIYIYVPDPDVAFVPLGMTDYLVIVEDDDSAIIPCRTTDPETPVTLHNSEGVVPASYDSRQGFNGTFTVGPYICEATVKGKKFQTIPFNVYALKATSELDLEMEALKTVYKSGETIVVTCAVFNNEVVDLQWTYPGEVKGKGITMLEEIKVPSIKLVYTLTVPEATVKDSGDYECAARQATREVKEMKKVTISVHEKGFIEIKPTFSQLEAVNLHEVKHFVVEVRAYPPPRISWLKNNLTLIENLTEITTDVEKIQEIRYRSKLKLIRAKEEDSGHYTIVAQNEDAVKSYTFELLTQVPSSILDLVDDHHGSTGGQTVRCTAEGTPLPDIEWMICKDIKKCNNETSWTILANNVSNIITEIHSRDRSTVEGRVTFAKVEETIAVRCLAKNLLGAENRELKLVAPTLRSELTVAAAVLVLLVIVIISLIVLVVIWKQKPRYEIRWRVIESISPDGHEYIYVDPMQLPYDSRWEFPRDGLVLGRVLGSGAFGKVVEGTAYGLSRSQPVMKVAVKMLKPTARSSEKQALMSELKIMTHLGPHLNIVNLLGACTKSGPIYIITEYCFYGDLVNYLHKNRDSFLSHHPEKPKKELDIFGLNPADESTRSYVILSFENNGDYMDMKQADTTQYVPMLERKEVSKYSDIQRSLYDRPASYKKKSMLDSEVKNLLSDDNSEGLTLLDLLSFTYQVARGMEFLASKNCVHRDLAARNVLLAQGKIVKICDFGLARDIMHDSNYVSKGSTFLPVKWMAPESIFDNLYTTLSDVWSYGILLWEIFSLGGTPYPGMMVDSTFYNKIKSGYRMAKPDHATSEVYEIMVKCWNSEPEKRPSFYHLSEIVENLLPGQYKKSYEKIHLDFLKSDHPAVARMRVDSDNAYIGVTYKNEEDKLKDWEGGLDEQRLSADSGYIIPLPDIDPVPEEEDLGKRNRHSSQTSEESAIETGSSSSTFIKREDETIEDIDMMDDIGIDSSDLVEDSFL
# [5] = target: Phosphatidylinositol 4-phosphate 5-kinase type-1 gamma (Homo sapiens) (UniProt O60331); assay: Inhibition of wild-type human partial length PIP5K1C (M1 to T668 residues) expressed in mammalian expression system assessed as residual activity at 50 nM by Kinomescan method relative to control
# [6] = target: Receptor-type tyrosine-protein kinase FLT3 (Homo sapiens) (UniProt P36888); assay: Inhibition of wild-type human partial length FLT3 (V592 to Y969 residues) expressed in bacterial expression system assessed as residual activity at 50 nM by Kinomescan method relative to control
# [7] = target: Mitogen-activated protein kinase 8 (Homo sapiens) (UniProt P45983); assay: Inhibition of wild-type human full length JNK1 (M1 to Q384 residues) expressed in mammalian expression system assessed as residual activity at 50 nM by Kinomescan method relative to control
# Sequence of Mitogen-activated protein kinase 8 (Homo sapiens) (P45983 whole entry, the tested form may be a part): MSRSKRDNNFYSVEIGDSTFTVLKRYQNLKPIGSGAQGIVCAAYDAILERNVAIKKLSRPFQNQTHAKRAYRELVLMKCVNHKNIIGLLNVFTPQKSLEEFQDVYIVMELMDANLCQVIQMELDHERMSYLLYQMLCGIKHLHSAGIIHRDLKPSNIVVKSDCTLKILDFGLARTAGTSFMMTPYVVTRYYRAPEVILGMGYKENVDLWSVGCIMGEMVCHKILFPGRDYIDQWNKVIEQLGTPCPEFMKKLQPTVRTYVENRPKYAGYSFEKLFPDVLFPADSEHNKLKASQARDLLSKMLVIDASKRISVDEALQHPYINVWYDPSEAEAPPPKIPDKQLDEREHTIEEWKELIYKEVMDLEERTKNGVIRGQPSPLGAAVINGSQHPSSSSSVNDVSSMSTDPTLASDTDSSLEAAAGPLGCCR
# [8] = target: Tyrosine-protein kinase Lck (Homo sapiens) (UniProt P06239); assay: Inhibition of wild-type human partial length LCK (R207 to P509 residues) expressed in bacterial expression system assessed as residual activity at 50 nM by Kinomescan method relative to control
# [9] = target: LIM domain kinase 2 (Homo sapiens) (UniProt P53671); assay: Inhibition of wild-type human full length LIMK2 (M1 to P638 residues) expressed in bacterial expression system assessed as residual activity at 50 nM by Kinomescan method relative to control
# [10] = target: Serine/threonine-protein kinase pim-3 (Homo sapiens) (UniProt Q86V86); assay: Inhibition of wild-type human partial length PIM3 (G16 to A317 residues) expressed in bacterial expression system assessed as residual activity at 50 nM by Kinomescan method relative to control
# [11] = target: Receptor-interacting serine/threonine-protein kinase 1 (Homo sapiens) (UniProt Q13546); assay: Inhibition of wild-type human partial length RIPK1 (M1 to K305 residues) expressed in bacterial expression system assessed as residual activity at 50 nM by Kinomescan method relative to control
# [12] = target: Cyclin-dependent kinase 5 (Homo sapiens) (UniProt Q00535); assay: Inhibition of wild-type human full length CDK5 (M1 to P292 residues) expressed in bacterial expression system assessed as residual activity at 50 nM by Kinomescan method relative to control
# [13] = target: Eukaryotic translation initiation factor 2-alpha kinase 1 (Homo sapiens) (UniProt Q9BQI3); assay: Inhibition of wild-type human partial length EIF2AK1 (Q147 to E603 residues) expressed in mammalian expression system assessed as residual activity at 50 nM by Kinomescan method relative to control
# [14] = target: Cyclin-dependent kinase 17 (Homo sapiens) (UniProt Q00537); assay: Inhibition of recombinant human full length PCTAIRE2 (M1 to F523 residues) assessed as residual activity at 50 nM by Kinomescan method relative to control
# [15] = target: SRSF protein kinase 2 (Homo sapiens) (UniProt P78362); assay: Inhibition of wild-type human full length SRPK2 (M1 to S686 residues) expressed in bacterial expression system assessed as residual activity at 50 nM by Kinomescan method relative to control
# Sequence of SRSF protein kinase 2 (Homo sapiens) (P78362 whole entry, looked up, the tested form may be a part): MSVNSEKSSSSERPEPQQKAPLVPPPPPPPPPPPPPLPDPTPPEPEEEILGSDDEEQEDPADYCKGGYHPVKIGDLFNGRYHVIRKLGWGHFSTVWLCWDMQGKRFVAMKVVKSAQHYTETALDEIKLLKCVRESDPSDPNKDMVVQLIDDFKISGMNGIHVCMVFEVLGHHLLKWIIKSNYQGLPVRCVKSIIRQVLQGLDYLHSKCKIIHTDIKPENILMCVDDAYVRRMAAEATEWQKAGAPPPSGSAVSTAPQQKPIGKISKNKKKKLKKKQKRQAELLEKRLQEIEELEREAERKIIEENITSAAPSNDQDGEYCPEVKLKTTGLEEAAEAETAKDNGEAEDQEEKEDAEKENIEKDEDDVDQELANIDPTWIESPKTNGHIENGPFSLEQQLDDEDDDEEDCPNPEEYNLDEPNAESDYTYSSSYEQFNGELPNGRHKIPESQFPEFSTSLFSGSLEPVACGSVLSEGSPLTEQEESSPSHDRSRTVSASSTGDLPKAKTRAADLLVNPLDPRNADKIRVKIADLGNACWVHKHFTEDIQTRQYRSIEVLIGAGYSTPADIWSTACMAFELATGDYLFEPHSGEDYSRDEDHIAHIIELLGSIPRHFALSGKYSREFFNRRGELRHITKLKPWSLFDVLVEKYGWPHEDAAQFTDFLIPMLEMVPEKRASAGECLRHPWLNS
# [16] = target: Cyclin-dependent kinase 11B (Homo sapiens) (UniProt P21127); assay: Inhibition of wild-type human partial length CDK11 (M1 to N360 residues) expressed in bacterial expression system assessed as residual activity at 50 nM by Kinomescan method relative to control
# [17] = target: Dual specificity protein kinase CLK3 (Homo sapiens) (UniProt P49761); assay: Inhibition of wild-type human full length CLK3 (M1 to R490 residues) expressed in bacterial expression system assessed as residual activity at 50 nM by Kinomescan method relative to control
# [18] = target: Ephrin type-A receptor 5 (Homo sapiens) (UniProt P54756); assay: Inhibition of wild-type human partial length EPHA5 (T627 to V930 residues) expressed in bacterial expression system assessed as residual activity at 50 nM by Kinomescan method relative to control
# Sequence of Ephrin type-A receptor 5 (Homo sapiens) (P54756 whole entry, the tested form may be a part): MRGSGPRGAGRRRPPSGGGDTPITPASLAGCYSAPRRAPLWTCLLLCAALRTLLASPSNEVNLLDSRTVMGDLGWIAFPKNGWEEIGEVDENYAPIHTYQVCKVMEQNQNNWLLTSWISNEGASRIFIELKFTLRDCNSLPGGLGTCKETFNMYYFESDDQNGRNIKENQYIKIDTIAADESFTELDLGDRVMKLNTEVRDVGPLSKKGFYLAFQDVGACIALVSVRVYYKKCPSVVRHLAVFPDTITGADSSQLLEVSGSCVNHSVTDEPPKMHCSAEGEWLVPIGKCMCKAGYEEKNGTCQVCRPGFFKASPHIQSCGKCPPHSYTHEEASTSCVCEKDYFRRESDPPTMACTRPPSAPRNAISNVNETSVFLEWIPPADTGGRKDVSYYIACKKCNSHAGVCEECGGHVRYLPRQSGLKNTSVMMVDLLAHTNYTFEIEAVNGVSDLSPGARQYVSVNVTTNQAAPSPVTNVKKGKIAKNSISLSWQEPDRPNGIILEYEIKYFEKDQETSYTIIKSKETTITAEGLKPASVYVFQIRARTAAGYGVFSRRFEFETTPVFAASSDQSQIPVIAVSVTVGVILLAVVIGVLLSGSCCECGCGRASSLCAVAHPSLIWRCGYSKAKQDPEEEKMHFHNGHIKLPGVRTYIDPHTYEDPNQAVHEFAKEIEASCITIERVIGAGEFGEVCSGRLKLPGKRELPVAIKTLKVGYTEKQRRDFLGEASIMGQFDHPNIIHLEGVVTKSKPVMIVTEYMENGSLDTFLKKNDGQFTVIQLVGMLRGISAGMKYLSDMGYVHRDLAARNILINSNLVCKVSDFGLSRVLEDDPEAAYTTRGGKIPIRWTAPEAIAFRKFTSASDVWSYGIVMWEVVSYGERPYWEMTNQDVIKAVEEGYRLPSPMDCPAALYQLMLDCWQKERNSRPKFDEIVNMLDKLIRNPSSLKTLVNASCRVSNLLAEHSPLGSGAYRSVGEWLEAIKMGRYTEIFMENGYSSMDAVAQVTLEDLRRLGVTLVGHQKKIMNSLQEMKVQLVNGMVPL
# [19] = target: Tyrosine-protein kinase Fer (Homo sapiens) (UniProt P16591); assay: Inhibition of wild-type human partial length FER (S542 to T822 residues) expressed in bacterial expression system assessed as residual activity at 50 nM by Kinomescan method relative to control
# [20] = target: Tyrosine-protein kinase Fes/Fps (Homo sapiens) (UniProt P07332); assay: Inhibition of wild-type human partial length FES (I527 to R822 residues) expressed in bacterial expression system assessed as residual activity at 50 nM by Kinomescan method relative to control
# [21] = target: Receptor tyrosine-protein kinase erbB-3 (Homo sapiens) (UniProt P21860); assay: Inhibition of wild-type human partial length ERBB3 (G684 to A987 residues) expressed in mammalian expression system assessed as residual activity at 50 nM by Kinomescan method relative to control
# [22] = target: Homeodomain-interacting protein kinase 1 (Homo sapiens) (UniProt Q86Z02); assay: Inhibition of wild-type human partial length HIPK1 (M146 to I555 residues) expressed in mammalian expression system assessed as residual activity at 50 nM by Kinomescan method relative to control
# [23] = target: MAP kinase-interacting serine/threonine-protein kinase 2 (Homo sapiens) (UniProt Q9HBH9); assay: Inhibition of wild-type human partial length MNK2 (G63 to S388 residues) expressed in mammalian expression system assessed as residual activity at 50 nM by Kinomescan method relative to control
# Sequence of MAP kinase-interacting serine/threonine-protein kinase 2 (Homo sapiens) (Q9HBH9 whole entry, looked up, the tested form may be a part): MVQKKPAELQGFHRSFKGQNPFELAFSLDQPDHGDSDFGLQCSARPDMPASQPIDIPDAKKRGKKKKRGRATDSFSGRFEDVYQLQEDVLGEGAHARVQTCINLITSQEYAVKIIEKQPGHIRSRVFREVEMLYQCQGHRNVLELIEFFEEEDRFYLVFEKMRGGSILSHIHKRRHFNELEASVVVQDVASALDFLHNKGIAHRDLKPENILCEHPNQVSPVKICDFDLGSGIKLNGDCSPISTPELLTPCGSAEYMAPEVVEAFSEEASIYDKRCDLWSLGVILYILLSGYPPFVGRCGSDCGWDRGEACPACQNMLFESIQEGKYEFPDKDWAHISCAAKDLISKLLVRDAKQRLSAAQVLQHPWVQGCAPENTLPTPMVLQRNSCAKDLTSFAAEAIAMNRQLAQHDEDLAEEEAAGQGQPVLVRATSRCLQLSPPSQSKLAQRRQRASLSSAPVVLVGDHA
# [24] = target: Serine/threonine-protein kinase ULK3 (Homo sapiens) (UniProt Q6PHR2); assay: Inhibition of wild-type human partial length ULK3 (M1 to Q290 residues) expressed in mammalian expression system assessed as residual activity at 50 nM by Kinomescan method relative to control
# Sequence of Serine/threonine-protein kinase ULK3 (Homo sapiens) (Q6PHR2 whole entry, the tested form may be a part): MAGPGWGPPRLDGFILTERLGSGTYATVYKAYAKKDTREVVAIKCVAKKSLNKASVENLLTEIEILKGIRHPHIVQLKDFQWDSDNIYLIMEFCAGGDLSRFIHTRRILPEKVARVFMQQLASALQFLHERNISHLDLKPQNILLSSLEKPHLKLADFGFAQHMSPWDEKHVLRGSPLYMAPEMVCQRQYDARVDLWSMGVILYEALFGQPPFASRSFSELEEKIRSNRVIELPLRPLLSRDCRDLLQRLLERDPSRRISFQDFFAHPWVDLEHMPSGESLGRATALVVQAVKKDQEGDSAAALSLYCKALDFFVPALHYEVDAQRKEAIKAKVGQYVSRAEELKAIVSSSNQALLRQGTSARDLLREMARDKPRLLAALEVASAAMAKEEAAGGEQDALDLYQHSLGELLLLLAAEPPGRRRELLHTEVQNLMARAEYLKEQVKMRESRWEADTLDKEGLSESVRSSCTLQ
# [25] = target: Serine/threonine-protein kinase 32B (Homo sapiens) (UniProt Q9NY57); assay: Inhibition of wild-type human full length YANK2 (M1 to S414 residues) expressed in bacterial expression system assessed as residual activity at 50 nM by Kinomescan method relative to control
# Sequence of MAP kinase-interacting serine/threonine-protein kinase 1 (Homo sapiens) (Q9BUB5 whole entry, looked up, the tested form may be a part): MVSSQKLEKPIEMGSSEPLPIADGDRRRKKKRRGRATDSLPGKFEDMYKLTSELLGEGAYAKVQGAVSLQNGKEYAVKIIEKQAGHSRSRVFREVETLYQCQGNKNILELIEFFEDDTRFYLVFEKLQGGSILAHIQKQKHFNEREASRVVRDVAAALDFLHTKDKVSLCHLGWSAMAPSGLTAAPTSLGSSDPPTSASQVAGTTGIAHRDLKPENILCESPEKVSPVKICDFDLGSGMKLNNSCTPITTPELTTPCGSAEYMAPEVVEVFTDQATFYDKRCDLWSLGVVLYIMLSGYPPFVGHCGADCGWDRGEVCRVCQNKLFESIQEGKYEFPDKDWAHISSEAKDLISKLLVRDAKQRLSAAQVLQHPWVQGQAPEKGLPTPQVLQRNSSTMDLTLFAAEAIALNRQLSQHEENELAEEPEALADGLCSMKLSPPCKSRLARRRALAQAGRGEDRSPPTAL
SMILES,Activity [1] [%],Activity [2] [%],Activity [3] [%],Activity [4] [%],Activity [5] [%],Activity [6] [%],Activity [7] [%],Activity [8] [%],Activity [9] [%],Activity [10] [%],Activity [11] [%],Activity [12] [%],Activity [13] [%],Activity [14] [%],Activity [15] [%],Activity [16] [%],Activity [17] [%],Activity [18] [%],Activity [19] [%],Activity [20] [%],further results
COc1ccc(-c2cc3c(N[C@@H]4CC[C@](C)(N)C4(C)C)c(C(N)=O)cnn3c2)cn1,100,59,100,97,77,90,88,100,100,72,100,92,96,100,81,100,96,100,100,98,Activity [21]: 100%; Activity [22]: 100%; Activity [23]: 95%; Activity [24]: 100%; Activity [25]: 100%
CC1(C)[C@H](Nc2c(C(N)=O)cnn3cc(-c4ccccc4)cc23)CC[C@]1(C)N,54,54,64,67,68,72,81,87,92,92,92,94,94,95,95,99,100,100,100,100,Activity [21]: 100%; Activity [22]: 100%; Activity [23]: 100%; Activity [24]: 100%; Activity [25]: 100%
